Test results taken from patent US9968602B2, “Modulation of cell fates and activities by phthalazinediones” (Bach Pharma, Inc., priority 2002, dated 2018).

Columns and labels:
MOMU-LV-Ts1 virus = assay: Movement disorder with paralysis induced by MOMU-LV-Ts1 virus in mice; assay type: in vivo; settings: daily intraperitoneal injections of 200 μg
Source text: In mice infected at 2 days of age with the Ts1 virus, hind limb paralysis occurs with severe wasting, especially of immune organs. In humans infected with HIV, severe immune deficiency with sensory and motor neuropathy also results. In these wasting syndromes with disordered life and death pathways in various cells, some therapeutic attempts with thiol redox modulators other than amino phthalazinediones have been partially successful (Lynn and Wong, NeuroImmunomodulation 4: 277-284, 1997; Yan et al., FASEB J. 15: 1132-1138, 2001). In these studies, phthalazinediones plus thiol redox modulators appear to be sufficient to maintain survival and an adequate intracellular thiol redox potential in brain and in thymus.
Since maintaining this excessive and imbalanced 4 Hz oscillation requires increased […] expenditures, agents such as amino phthalazinediones, which can modulate thiol redox status, downregulate mitochondrial energy production, and gain access to the overactivated STN neurons, can potentially suppress the 4 Hz overactivity and thereby suppress and modulate the downstream network activities responsible for the symptoms. […] Whether this is due to suppression of oscillatory activity in neurons, suppression of virus-induced astrocytic inflammatory responses, or both is under investigation. […]

ATM-deficient mice = assay: Thymic tumor formation and premature degeneration in ATM-deficient mice; assay type: in vivo; settings: ATM deficiency
Source text: In regulatory gene-dependent syndromes of premature aging, including ataxia telangiectasia, Down syndrome, trichothiodystrophy, Bloom's disease, p53 over-activity (De Boer et al., Science 296: 1276-1281, 2002; Tyner et al., Nature 415: 45-50, 2002), in which life and death of specific cell types are aberrant, appropriate treatments in vitro and in vivo with thiol redox modulators have been partially successful.
Other thiol redox modulators, such as N-acetyl cysteine and dehydrolipoic acid, also delay the premature degeneration of cells and the thymomas. Thiol redox modulators also correct the delayed differentiation and excessive production of DNA in ATM-deficient lymphoid cells (Yan et al., FASEB J. 15: 1132-1138, 2001; Lynn et al., unpublished). However, in the ATM-deficient mice, treatment was fully successful only if the thiol redox modulators were applied early, before two weeks of age and before tumor development.
Whether amino phthalazinediones with other thiol redox modulators, which suppress growth of non-transformed ATM-deficient cells in vitro, can fully suppress tumors in vivo, without toxicity, has not been rigorously evaluated. Cross-linking redox modulators such as diamide, menadione, and oxidized phthalazines are known to stop cell growth, activate caspases, and initiate apoptosis in some tumor cells (Pias and Aw, FASEB J. 16: 781-790, 2002).

[1] = test system: mitochondrial transmembrane pores; settings: cited from earlier work

Compound	premature degeneration of cells and the thymomas (ATM-deficient mice)	further results
Nc1cccc2c([O-])n[nH]c(=O)c12.[Na+] [4-sodium amino phthalazinedione]	–	progress of the movement disorder with paralysis (MOMU-LV-Ts1 virus): significantly delay
CC(=O)N[C@@H](CS)C(=O)O [N-acetyl cysteine]	delay	–
CN(C)C(=O)/N=N/C(=O)N(C)C [Diamide]	–	opening of mitochondrial transmembrane pores [1]: completely opens mitochondrial transmembrane pores
O=C(O)CCCC[C@@H](S)CCS [dehydrolipoic acid]	delay	–
